The values below come from patent publication US20090118375A1, “Optically active phthalamides” (priority 2004, published 2009).

The subject of one data set is Spodoptera frugiperda. The data set is described as follows: Spodoptera frugiperda test (spray application). The class given is in vivo. The conditions noted are these: topical, 168 h, spray on maize leaf slices, after 7 d, read-out: Kill rate in % after 7 d. Here is the method:
Spodoptera frugiperda Test (Spray Application)
(§1) To produce a suitable preparation of active compound, 1 part by weight of active compound is mixed with the stated amounts of solvent and emulsifier, and the concentrate is diluted with emulsifier-containing water to the desired concentration.
Maize leave slices (Zea mays) are treated by being sprayed with the preparation of the active compound of the desired concentration and are infested with caterpillars of the fall army worm (Spodoptera frugiperda) after the leaves have dried.
(§2) After the specified period of time, the mortality in % is determined. 100% means that all the […] have been killed; 0% means that none of the […] have been killed.

Another data set deals with Myzus persicae. The data set is described as follows: Myzus test (spray application). The class given is in vivo. The conditions noted are these: topical, 120 h, spray on Chinese cabbage leaves, after 5 d, read-out: Kill rate in % after 5 d. As to the method:
Myzus Test (Spray Application)
as §1
Chinese cabbage leaves (Brassica pekinensis), which are infested by the green peach aphid (Myzus persicae), are treated by being sprayed with the preparation of the active compound of the desired concentration.
as §2

The next data set concerns Phaedon cochleariae. The data set is described as follows: Phaedon test (spray application). Type of data set: in vivo. The settings on record: topical, 168 h, spray on Chinese cabbage leaves, after 7 d, read-out: Kill rate in % after 7 d. As to the method:
Phaedon Test (Spray Application) [table] To produce a suitable preparation of active compound, 1 part by weight of active compound is mixed with the stated amounts of solvent and emulsifier, and the concentrate is diluted with emulsifier-containing water to the desired concentration. Chinese cabbage leaves (Brassica pekinensis) are treated by being sprayed with the preparation of the active compound of the desired concentration and are infested with mustard beetle larvae (Phaedon cochleariae) after the leaves have dried.

The next data set has as its system Heliothis armigera. The data set is described as follows: Heliothis armigera test. The settings on record: Helicoverpa armigera, 168 h, soybean shoots dipped, after 7 d, read-out: Kill rate in % after 7 d. The class given is in vivo. As to the method: as §1
Soybean shoots (Glycine max) are treated by being dipped into the preparation of active compound of the desired concentration and are populated with caterpillars of Heliothis armigera while the leaves are still moist.
(§3) After the desired period of time, the kill in % is determined. 100% means that all caterpillars have been killed; 0% means that none of the caterpillars have been killed.

A further data set relates to Spodoptera exigua. The data set can be described thus: Spodoptera exigua test. The conditions noted are these: 168 h, cabbage leaves dipped, after 7 d, read-out: Kill rate in % after 7 d. Type of data set: in vivo. As to the method:
as §1
Cabbage leaves (Brassica oleracea) are treated by being dipped into the preparation of active compound of the desired concentration and are populated with caterpillars of the army worm (Spodoptera exigua) while the leaves are still moist.
as §3

Take `Cc1cc(C(F)(C(F)F)C(F)(F)F)ccc1NC(=O)c1cccc(I)c1C(=O)N[C@@H](C)C[S+](C)[O-]` (stereo partly shown) [Compound 66]: the pest or weed control at 20 g/ha with Spodoptera frugiperda came to 100%. Besides, the pest or weed control at 100 g/ha with Myzus persicae amounted to 100%.
As for `CCSC[C@H](C)NC(=O)c1c(Cl)cccc1C(=O)Nc1ccc(C(C(F)F)C(F)(F)F)cc1Cl` (stereo partly shown) [Compound 51], in the data set on Myzus persicae, the pest or weed control at 100 g/ha stood at 100%.
As to `CSC[C@H](C)NC(=O)c1c(I)cccc1C(=O)Nc1ccc(C(F)(C(F)F)C(F)(F)F)cc1C#N` (stereo partly shown) [Compound 29], the pest or weed control at 20 g/ha in the data set with Phaedon cochleariae stood at 83%.
For the molecule `CCSC[C@H](C)NC(=O)c1c(Br)cccc1C(=O)Nc1ccc(C(F)(C(F)F)C(F)(F)F)cc1Cl` (stereo partly shown) [Compound 53], the melting point (in general, the temperature, or range, at which the solid turns liquid) amounted to 148 °C. For the same molecule, the pest or weed control at 20 ppm in the data set on Heliothis armigera stood at 100%.
In the case of `CSC[C@H](C)NC(=O)c1c(I)cccc1C(=O)Nc1ccc(C(F)(C(F)F)C(F)(F)F)cc1Br` (stereo partly shown) [Compound 15], in the data set with Phaedon cochleariae, the pest or weed control at 20 g/ha is 100%.
`CCS(=O)(=O)C[C@H](C)NC(=O)c1c(I)cccc1C(=O)Nc1ccc(C(F)(C(F)F)C(F)(F)F)cc1C` (stereo partly shown) [Compound 13]: the melting point was 112 °C. For the same molecule, the pest or weed control at 20 ppm with Spodoptera exigua amounted to 100%.
Consider `CCS(=O)(=O)C[C@H](C)NC(=O)c1c(Cl)cccc1C(=O)Nc1ccc(C(F)(C(F)(F)F)C(F)(F)Br)cc1C` (stereo partly shown) [Compound 49], for which the pest or weed control at 20 g/ha in the data set with Spodoptera frugiperda turned out to be 100%.
With `Cc1cc(C(C(F)F)C(F)(F)F)ccc1NC(=O)c1cccc(Cl)c1C(=O)N[C@@H](C)C[S+](C)[O-]` (stereo partly shown) [Compound 62], the pest or weed control at 100 g/ha with Myzus persicae came to 100%.
`CCSC[C@H](C)NC(=O)c1c(I)cccc1C(=O)Nc1ccc(C(F)(C(F)F)C(F)(F)F)cc1Br` (stereo partly shown) [Compound 6]: in the data set on Spodoptera frugiperda, the pest or weed control at 20 g/ha was 100%.
For `CCSC[C@H](C)NC(=O)c1c(Cl)cccc1C(=O)Nc1ccc(C(F)(C(F)(F)F)C(F)(F)Br)cc1C` (stereo partly shown) [Compound 45], the pest or weed control at 20 g/ha in the data set with Phaedon cochleariae worked out at 100%.
`Cc1cc(C(F)(C(F)(F)F)C(F)(F)Br)ccc1NC(=O)c1cccc(Br)c1C(=O)N[C@@H](C)CS(C)(=O)=O` (stereo partly shown) [Compound 64]: the pest or weed control at 20 g/ha in the data set on Spodoptera frugiperda amounted to 90%.
`CCS(=O)(=O)C[C@H](C)NC(=O)c1c(Cl)cccc1C(=O)Nc1ccc(C(F)(C(F)F)C(F)(F)F)cc1Cl` (stereo partly shown) [Compound 55] gave a melting point of 175 °C. The pest or weed control at 20 ppm with Heliothis armigera was 100%.
As to `CCS(=O)(=O)C[C@H](C)NC(=O)c1c(Br)cccc1C(=O)Nc1ccc(C(C(F)F)C(F)(F)F)cc1Cl` (stereo partly shown) [Compound 59], the melting point was 121 °C. Moreover, the pest or weed control at 20 ppm with Spodoptera exigua is 100%.
The molecule `C[C@@H](CS(C)(=O)=O)NC(=O)c1c(Cl)cccc1C(=O)Nc1ccc(C(C(F)F)C(F)(F)F)cc1Cl` (stereo partly shown) [Compound 48] returned a melting point of 198 °C. Besides, the pest or weed control at 20 ppm in the data set on Heliothis armigera came to 100%.
For `CCS(=O)(=O)C[C@H](C)NC(=O)c1c(Br)cccc1C(=O)Nc1ccc(C(F)(C(F)F)C(F)(F)F)cc1Cl` (stereo partly shown) [Compound 58] the same measures were 118 °C and 100%.
In the case of `CSC[C@H](C)NC(=O)c1c(I)cccc1C(=O)Nc1ccc(C(F)(C(F)(F)F)C(F)(F)Br)cc1C` (stereo partly drawn) [Compound 9, N^1-[4-(2-Bromo-1,2,2-trifluoro-1-trifluoromethyl-ethyl)-2-methyl-phenyl]-3-iodo-N^2-[(S)-1-methyl-2-methylsulfanyl-ethyl]-phthalamide], the melting point was 124 °C. Also, the pest or weed control at 20 ppm in the data set on Heliothis armigera was found to be 100%.
Consider `CC[S+]([O-])C[C@H](C)NC(=O)c1c(I)cccc1C(=O)Nc1ccc(C(C(F)F)C(F)(F)F)cc1C` (stereo partly shown) [Compound 61], for which the pest or weed control at 20 g/ha in the data set on Phaedon cochleariae was 100%.
In turn, `CSC[C@H](C)NC(=O)c1c(Cl)cccc1C(=O)Nc1ccc(C(C(F)F)C(F)(F)F)cc1C` (stereo partly shown) [Compound 40] returned a melting point of 105 °C. Further, the pest or weed control at 20 ppm in the data set on Heliothis armigera was 100%.
Regarding `C[C@@H](CS(C)(=O)=O)NC(=O)c1c(I)cccc1C(=O)Nc1ccc(C(F)(C(F)F)C(F)(F)F)cc1Br` (stereo partly shown) [Compound 30], the pest or weed control at 20 g/ha with Spodoptera frugiperda is 100%.
Turning to `CSC[C@H](C)NC(=O)c1c(I)cccc1C(=O)Nc1ccc(C(F)(C(F)F)C(F)(F)F)cc1C` (stereo partly shown) [Compound 10], the pest or weed control at 20 g/ha in the data set on Phaedon cochleariae worked out at 100%.
The molecule `C[C@@H](CS(C)(=O)=O)NC(=O)c1c(Cl)cccc1C(=O)Nc1ccc(C(F)(C(F)F)C(F)(F)F)cc1Cl` (stereo partly shown) [Compound 47] had a melting point of 180 °C. In the data set with Spodoptera exigua, the pest or weed control at 20 ppm was 100%.
For the molecule `Cc1cc(C(C(F)F)C(F)(F)F)ccc1NC(=O)c1cccc(I)c1C(=O)N[C@@H](C)C[S+](C)[O-]` (stereo partly shown) [Compound 60], the pest or weed control at 20 g/ha in the data set with Phaedon cochleariae stood at 100%.
Take `CCSC[C@H](C)NC(=O)c1c(Br)cccc1C(=O)Nc1ccc(C(F)(C(F)F)C(F)(F)F)cc1Br` (stereo partly shown) [Compound 68]: the melting point was in the range of 140 to 142 °C. Moreover, the pest or weed control at 20 ppm in the data set with Heliothis armigera came to 100%.
In the case of `CSC[C@H](C)NC(=O)c1c(Br)cccc1C(=O)Nc1ccc(C(F)(C(F)(F)F)C(F)(F)Br)cc1C` (stereo partly shown) [Compound 63], the pest or weed control at 100 g/ha in the data set on Myzus persicae came out at 90%.
Regarding `CCS(=O)(=O)C[C@H](C)NC(=O)c1c(I)cccc1C(=O)Nc1ccc(C(C(F)F)C(F)(F)F)cc1Cl` (stereo partly shown) [Compound 26], the pest or weed control at 20 g/ha in the data set with Spodoptera frugiperda came out at 100%. For the same molecule, the pest or weed control at 100 g/ha in the data set on Myzus persicae was 100%.
For the molecule `CCS(=O)(=O)C[C@H](C)NC(=O)c1c(Cl)cccc1C(=O)Nc1ccc(C(C(F)F)C(F)(F)F)cc1Cl` (stereo partly shown) [Compound 56], the melting point was 116 °C. Besides, in the data set with Spodoptera exigua, the pest or weed control at 20 ppm was determined as 100%.
For `CSC[C@H](C)NC(=O)c1c(I)cccc1C(=O)Nc1ccc(C(F)(C(F)F)C(F)(F)F)cc1F` (stereo partly shown) [Compound 16], in the data set with Spodoptera frugiperda, the pest or weed control at 20 g/ha came out at 100%.
In the case of `Cc1cc(C(F)(C(F)(F)F)C(F)(F)Br)ccc1NC(=O)c1cccc(I)c1C(=O)N[C@@H](C)C[S+](C)[O-]` (stereo partly drawn) [Compound 65, N^1-[4-(2-Bromo-1,2,2-trifluoro-1-trifluoromethyl-ethyl)-2-methyl-phenyl]-3-iodo-N^2-[2-methanesulfinyl-(S)-1-methyl-ethyl]-phthalamide], the pest or weed control at 200 g/ha in the data set with Spodoptera frugiperda (200 g/ha) was found to be 100%.
In the case of `CSC[C@H](C)NC(=O)c1c(I)cccc1C(=O)Nc1ccc(C(C(F)F)C(F)(F)F)cc1Cl` (stereo partly shown) [Compound 14], in the data set with Myzus persicae, the pest or weed control at 100 g/ha is 100%. The pest or weed control at 20 ppm in the data set on Heliothis armigera came out at 100%.
Consider `CCS(=O)(=O)C[C@H](C)NC(=O)c1c(I)cccc1C(=O)Nc1ccc(C(F)(C(F)(F)F)C(F)(F)Br)cc1C` (stereo partly shown) [Compound 2], for which the pest or weed control at 20 g/ha with Phaedon cochleariae came out at 100%.
For `Cc1cc(C(F)(C(F)(F)F)C(F)(F)Br)ccc1NC(=O)c1cccc(Cl)c1C(=O)N[C@@H](C)CS(C)(=O)=O` (stereo partly shown) [Compound 43], the pest or weed control at 100 g/ha in the data set with Myzus persicae was found to be 100%.
On to `CSC[C@H](C)NC(=O)c1c(I)cccc1C(=O)Nc1ccc(C(C(F)F)C(F)(F)F)cc1Br` (stereo partly shown) [Compound 22], for which, in the data set with Phaedon cochleariae, the pest or weed control at 20 g/ha amounted to 100%.
`CSC[C@H](C)NC(=O)c1c(I)cccc1C(=O)Nc1ccc(C(F)(C(F)F)C(F)(F)F)cc1Cl` (stereo partly shown) [Compound 12]: the pest or weed control at 20 g/ha in the data set with Spodoptera frugiperda turned out to be 100%.
In the case of `CSC[C@H](C)NC(=O)c1c(I)cccc1C(=O)Nc1ccc(C(C(F)F)C(F)(F)F)cc1F` (stereo partly shown) [Compound 17], the pest or weed control at 100 g/ha in the data set with Myzus persicae was determined as 100%.
`Cc1cc(C(C(F)F)C(F)(F)F)ccc1NC(=O)c1cccc(I)c1C(=O)N[C@@H](C)CS(C)(=O)=O` (stereo partly shown) [Compound 20]: the melting point was 123 °C. Further, the pest or weed control at 20 ppm in the data set with Heliothis armigera turned out to be 100%.
Regarding `CSC[C@H](C)NC(=O)c1c(Cl)cccc1C(=O)Nc1ccc(C(F)(C(F)F)C(F)(F)F)cc1C` (stereo partly shown) [Compound 39], in the data set with Spodoptera frugiperda, the pest or weed control at 20 g/ha is 100%.
For `CCS(=O)(=O)C[C@H](C)NC(=O)c1c(Br)cccc1C(=O)Nc1ccc(C(F)(C(F)(F)F)C(F)(F)Br)cc1C` (stereo partly shown) [Compound 57], the pest or weed control at 20 g/ha in the data set with Phaedon cochleariae was determined as 100%.
Consider `CCS(=O)(=O)C[C@H](C)NC(=O)c1c(I)cccc1C(=O)Nc1ccc(C(C(F)F)C(F)(F)F)cc1C` (stereo partly shown) [Compound 7], for which the pest or weed control at 100 g/ha in the data set on Myzus persicae was determined as 100%.
Consider `CSC[C@H](C)NC(=O)c1c(Cl)cccc1C(=O)Nc1ccc(C(F)(C(F)F)C(F)(F)F)cc1Cl` (stereo partly shown) [Compound 41], for which, in the data set with Phaedon cochleariae, the pest or weed control at 20 g/ha stood at 100%.
On the same count and under the same terms, in the case of `CCSC[C@H](C)NC(=O)c1c(Cl)cccc1C(=O)Nc1ccc(C(F)(C(F)F)C(F)(F)F)cc1Cl` (stereo partly shown) [Compound 50] it was 100%.
